Assay results reported in US20230321253A1, “BIFUNCTIONAL COMPOUNDS AND PHARMACEUTICAL USES THEREOF” (RISEN (SUZHOU) PHARMA TECH CO., LTD., priority 2022, published 2023).

What was measured:
[1] = test system: Aspc-1 cells; assay: Cell proliferation study in Aspc-1 cells (Cell Titer Glo); type: cell-based; conditions: Homo sapiens, ASPC1, 72 hours, read-out: IC50, inhibitory effect on cellular proliferation
Experimental: Aspc-1 (Cobioer, CBP60546) cells were grown in RPMI 1640 (Gibco, 61870127) supplemented with 10% fetal bovine serum (Gibco, 10099141), 1% penicillin-streptomycin (Gibco, 15070-063). Aspc-1 cells in exponential growth phase were seeded into 96-well plate (Corning, 3599) at density of 4×10^3/well. Cells were cultured overnight at 37° C. with 5% CO2. On the next day, cells were treated with test compound at various concentrations for 72 hours in 37° C., 5% CO2 incubator (final DMSO concentration was 0.1%). After treatment, 100 μL Cell Tier Glo (Promega, G7573) was added to every well of the cell plates and the plates were incubated at room temperature (RT) for 10 minutes. Cell growth status was measured with Cell Tier Glo (Promega, G7573) following the manufacturer's instructions. The inhibition curve was obtained with GraphPad 7.0 software using four-parameter equation.

[2] = molecular target: T1, KRAS-G12D protein (Homo sapiens, UniProt P01116, G12D); assay: KRAS-G12D protein degradation study in Aspc-1 cells (western blot); type: cell-based; conditions: for inhibition at 1 µM / inhibition at 0.1 µM / inhibition at 0.05 µM: ASPC1, 24 h; for inhibition at 1 µM: Aspc-1 cells treated with 1 μM compound; for inhibition at 1 µM / inhibition at 0.1 µM: read-out: Rate of protein degradation (KRAS^G12D); for inhibition at 0.05 µM: Aspc-1 cells treated with 50 nM compound, read-out: Rate of degradation (KRAS^G12D); for DC50: Aspc-1 cells, read-out: DC50 of test compound-induced KRAS^G12D protein degradation
T1 construct: host or cells: Aspc-1 cells
Outline: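 AsPC-1 cells were treated with compound for 24 h at 37° C (0.1% DMSO final), then lysed; KRAS levels measured by western blot. Degradation % = 1 − (KRAS/GAPDH, compound) ÷ (KRAS/GAPDH, DMSO), ×100; DC50 derived from concentration curves.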

[3] = Aspc-1 cells treated with 0.1 μM compound, 24 hours

T1 sequence (P01116 1-188 isoform P01116-2 G12D): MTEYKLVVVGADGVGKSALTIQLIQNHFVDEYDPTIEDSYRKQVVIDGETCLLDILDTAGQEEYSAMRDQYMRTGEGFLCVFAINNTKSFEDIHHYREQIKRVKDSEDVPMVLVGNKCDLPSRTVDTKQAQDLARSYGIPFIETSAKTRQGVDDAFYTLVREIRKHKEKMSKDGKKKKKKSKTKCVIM

Structure (SMILES)	IC50 [1] [nM]	inhibition at 1 µM ([2]; 24 hours) [%]	inhibition at 0.1 µM [2, 3] [%]	inhibition at 0.05 µM ([2]; 24 hours) [%]	DC50 [2] [nM]	Rate of protein degradation (KRAS^G12D) [2, 3]
CCc1c(F)ccc2cc(O)cc(-c3ncc4c(N5CC6CCC(C5)N6)nc(OC5CCN(CCCCCCCCCCC(=O)N[C@H](C(=O)N6C[C@H](O)C[C@H]6C(=O)NCc6ccc(-c7scnc7C)cc6)C(C)(C)C)CC5)nc4c3F)c12 [Compound 44]	1000 to 5000	31 to 60	–	–	–	–
C#Cc1c(F)ccc2cc(O)cc(-c3ncc4c(N5CC6CCC(C5)N6)nc(OC5CCN(CCCCCCCCCCC(=O)N[C@H](C(=O)N6C[C@H](O)C[C@H]6C(=O)NCc6ccc(-c7scnc7C)cc6)C(C)(C)C)CC5)nc4c3F)c12 [Compound 43]	101 to 1000	> 60	–	–	–	–
C#Cc1c(F)ccc2cc(O)cc(-c3ncc4c(N5CC6CCC(C5)N6)nc(OC5CCN(CCCCCCCCCCCC(=O)N[C@H](C(=O)N6C[C@H](O)C[C@H]6C(=O)NCc6ccc(-c7scnc7C)cc6)C(C)(C)C)CC5)nc4c3F)c12 [Compound 46]	101 to 1000	> 60	–	–	–	–
C#Cc1c(F)ccc2cc(O)cc(-c3ncc4c(N5CC6CCC(C5)N6)nc(OC5CCN(CCCCCCCCCCC(=O)N[C@H](C(=O)N6C[C@H](O)C[C@H]6C(=O)N[C@@H](C)c6ccc(-c7scnc7C)cc6)C(C)(C)C)CC5)nc4c3F)c12 [Compound 45]	101 to 1000	> 60	31 to 60	–	–	–
C#Cc1c(F)ccc2cc(O)cc(-c3ncc4c(N5CC6CCC(C5)N6)nc(OCCCN5CCN(CCCCCCCC(=O)N[C@H](C(=O)N6C[C@H](O)C[C@H]6C(=O)NCc6ccc(-c7scnc7C)cc6)C(C)(C)C)CC5)nc4c3F)c12 [Compound 31]	1000 to 5000	> 60	–	–	–	–
C#Cc1c(F)ccc2cc(O)cc(-c3ncc4c(N5CC6CCC(C5)N6)nc(OCCCN5CCN(C(=O)CN6CCC(c7ccc8c(C9CCC(=O)NC9=O)nn(C)c8c7)CC6)CC5)nc4c3F)c12 (stereo not drawn) [Compound 33]	101 to 1000	> 60	31 to 60	–	–	–
CCc1c(F)ccc2cc(O)cc(-c3ncc4c(N5CC6CCC(C5)N6)nc(OCCCN5CCN(C(=O)CCCCC(=O)N[C@H](C(=O)N6C[C@H](O)C[C@H]6C(=O)NCc6ccc(-c7scnc7C)cc6)C(C)(C)C)CC5)nc4c3F)c12 [Compound 26]	1000 to 5000	–	–	–	–	–
C#Cc1c(F)ccc2cc(O)cc(-c3ncc4c(N5CC6CCC(C5)N6)nc(OCC5(CN6CCC(C(=O)N7CCC(N8CCC(c9ccc%10c(C%11CCC(=O)NC%11=O)nn(C)c%10c9)CC8)CC7)CC6)CC5)nc4c3F)c12 (stereo not drawn) [Compound 129]	< 100	–	–	> 60	< 10	–
CCc1c(F)ccc2cc(O)cc(-c3ncc4c(N5CC6CCC(C5)N6)nc(OCC5(CN6CCC7(CC6)CC(N6CCC(c8ccc9c(C%10CCC(=O)NC%10=O)nn(C)c9c8)CC6)C7)CC5)nc4c3F)c12 (stereo not drawn) [Compound 160]	< 100	–	–	> 60	< 10	–
C#Cc1c(F)ccc2cc(O)cc(-c3ncc4c(N5CC6CCC(C5)N6)nc(OCC5(CN6CCC7(CC6)CC(N6CCN(c8ccc(NC9CCC(=O)NC9=O)cc8F)CC6)C7)CC5)nc4c3F)c12 (stereo not drawn) [Compound 150]	< 100	–	–	> 60	< 10	–
C#Cc1c(F)ccc2cc(O)cc(-c3ncc4c(N5CC6CCC(C5)N6)nc(OCC5(CN6CCC(C(=O)N7CCC8(CC7)CC(N7CCC(c9ccc%10c(C%11CCC(=O)NC%11=O)nn(C)c%10c9)CC7)C8)CC6)CC5)nc4c3F)c12 (stereo not drawn) [Compound 111]	< 100	–	> 60	–	< 10	–
CCc1c(F)ccc2cc(O)cc(-c3ncc4c(N5CC6CCC(C5)N6)nc(OC[C@@H]5CCCN5C(=O)CCCCCCCC(=O)N[C@H](C(=O)N5C[C@H](O)C[C@H]5C(=O)NCc5ccc(-c6scnc6C)cc5)C(C)(C)C)nc4c3F)c12 [Compound 35]	1000 to 5000	31 to 60	–	–	–	–
CCc1c(F)ccc2cc(O)cc(-c3ncc4c(N5CC6CCC(C5)N6)nc(OC5CCN(CCCCCCCCCC(=O)N[C@H](C(=O)N6C[C@H](O)C[C@H]6C(=O)NCc6ccc(-c7scnc7C)cc6)C(C)(C)C)CC5)nc4c3F)c12 [Compound 42]	1000 to 5000	–	–	–	–	–
C#Cc1c(F)ccc2cc(O)cc(-c3ncc4c(N5CC6CCC(C5)N6)nc(OCCCN5CCN(C(=O)CCCCC(=O)N[C@H](C(=O)N6C[C@H](O)C[C@H]6C(=O)NCc6ccc(-c7scnc7C)cc6)C(C)(C)C)CC5)nc4c3F)c12 [Compound 27]	101 to 1000	–	–	–	–	–
C#Cc1c(F)ccc2cc(O)cc(-c3ncc4c(N5CC6CCC(C5)N6)nc(OCC5(CN6CCC7(CC6)CC(N6CCC(c8cccc9c8CN(C8CCC(=O)NC8=O)C9=O)CC6)C7)CC5)nc4c3F)c12 (stereo not drawn) [Compound 157]	101 to 1000	–	–	11 to 30	> 200	–
C#Cc1c(F)ccc2cc(O)cc(-c3ncc4c(N5CC6CCC(C5)N6)nc(OC5CCN(CC(=O)N6CCC7(CC6)CC(N6CCC(c8ccc9c(C%10CCC(=O)NC%10=O)nn(C)c9c8)CC6)C7)CC5)nc4c3F)c12 (stereo not drawn) [Compound 82]	1000 to 5000	–	> 60	–	< 10	–
C#Cc1c(F)ccc2cc(O)cc(-c3ncc4c(N5CC6CCC(C5)N6)nc(OC5CCN(CCCCCCCCCCCCCC(=O)N[C@H](C(=O)N6C[C@H](O)C[C@H]6C(=O)NCc6ccc(-c7scnc7C)cc6)C(C)(C)C)CC5)nc4c3F)c12 [Compound 47]	1000 to 5000	31 to 60	–	–	–	–
C#Cc1c(F)ccc2cc(O)cc(-c3ncc4c(N5CC6CCC(C5)N6)nc(OCC5(CN6CCN(C(=O)CN7CCC(c8ccc9c(C%10CCC(=O)NC%10=O)nn(C)c9c8)CC7)CC6)CC5)nc4c3F)c12 (stereo not drawn) [Compound 92]	< 100	–	–	–	< 10	+++ (greater than 60%)
CCc1c(F)ccc2cc(O)cc(-c3ncc4c(N5CC6CCC(C5)N6)nc(OCC5(CN6CCC(C(=O)N7CCC8(CC7)CC(N7CCC(c9ccc%10c(C%11CCC(=O)NC%11=O)nn(C)c%10c9)CC7)C8)CC6)CC5)nc4c3F)c12 (stereo not drawn) [Compound 156]	< 100	–	–	31 to 60	< 10	–
C#Cc1c(F)ccc2cc(O)cc(-c3ncc4c(N5CC6CCC(C5)N6)nc(OCC5(CN6CCC7(CC6)CC(N6CCC(c8ccc9c(C%10CCC(=O)NC%10=O)nn(C)c9c8)CC6)C7)CC5)nc4c3F)c12 (stereo not drawn) [Compound 112]	< 100	–	> 60	–	< 10	–
C#Cc1c(F)ccc2cc(O)cc(-c3ncc4c(N5CC6CCC(C5)N6)nc(OCC5(CN6CCC(CN7CCC(c8ccc9c(c8)CN(C8CCC(=O)NC8=O)C9=O)CC7)CC6)CC5)nc4c3F)c12 (stereo not drawn) [Compound 146]	< 100	–	–	> 60	< 10	–
C#Cc1c(F)ccc2cc(O)cc(-c3ncc4c(N5CC6CCC(C5)N6)nc(OC5CCN(CCCCCCCCCC(=O)N6CCC(c7ccc8c(C9CCC(=O)NC9=O)nn(C)c8c7)CC6)CC5)nc4c3F)c12 (stereo not drawn) [Compound 50]	1000 to 5000	11 to 30	–	–	–	–
C#Cc1c(F)ccc2cc(O)cc(-c3ncc4c(N5CC6CCC(C5)N6)nc(OCC5(CN6CCCN(C(=O)CN7CCC(c8ccc9c(C%10CCC(=O)NC%10=O)nn(C)c9c8)CC7)CC6)CC5)nc4c3F)c12 (stereo not drawn) [Compound 155]	< 100	–	–	> 60	11 to 50	–
C#Cc1c(F)ccc2cc(O)cc(-c3ncc4c(N5CC6CCC(C5)N6)nc(OC5CCCN(CCCCCCCCCCC(=O)N[C@H](C(=O)N6C[C@H](O)C[C@H]6C(=O)N[C@@H](C)c6ccc(-c7scnc7C)cc6)C(C)(C)C)C5)nc4c3F)c12 (stereo partly drawn) [Compound 48]	1000 to 5000	–	–	–	–	–
C#Cc1c(F)ccc2cc(O)cc(-c3ncc4c(N5CC6CCC(C5)N6)nc(OCC5(CN6CCC7(CC6)CC(N6CCC(c8ccc9c(c8)n(C)c(=O)n9C8CCC(=O)NC8=O)CC6)C7)CC5)nc4c3F)c12 (stereo not drawn) [Compound 164]	< 100	–	–	> 60	< 10	–
C#Cc1c(F)ccc2cc(O)cc(-c3ncc4c(N5CC6CCC(C5)N6)nc(OC5CCCN(CCCCCCCCCCC(=O)N6CCC(c7ccc8c(C9CCC(=O)NC9=O)nn(C)c8c7)CC6)C5)nc4c3F)c12 (stereo not drawn) [Compound 49]	1000 to 5000	–	–	–	–	–
C#Cc1c(F)ccc2cc(O)cc(-c3ncc4c(N5CC6CCC(C5)N6)nc(OC5CCN(CCCCCCCC(=O)N[C@H](C(=O)N6C[C@H](O)C[C@H]6C(=O)NCc6ccc(-c7scnc7C)cc6)C(C)(C)C)CC5)nc4c3F)c12 [Compound 39]	5000 to 10000	–	–	–	–	–
C#Cc1c(F)ccc2cc(O)cc(-c3ncc4c(N5CC6CCC(C5)N6)nc(OCC56CCCN5[C@@H](COC(=O)NCCCCCCCCCC(=O)N[C@H](C(=O)N5C[C@H](O)C[C@H]5C(=O)N[C@@H](C)c5ccc(-c7scnc7C)cc5)C(C)(C)C)CC6)nc4c3F)c12 (stereo partly drawn) [Compound 98]	–	–	31 to 60	–	–	–
C#Cc1c(F)ccc2cc(O)cc(-c3ncc4c(N5CC6CCC(C5)N6)nc(OCC5(CN6CCC7(CC6)CC(Nc6ccc8c(C9CCC(=O)NC9=O)nn(C)c8c6)C7)CC5)nc4c3F)c12 (stereo not drawn) [Compound 167]	–	–	–	> 60	–	–
C#Cc1c(F)ccc2cc(O)cc(-c3ncc4c(N5CC6CCC(C5)N6)nc(O[C@H]5CCN(CCCCCCCCCC(=O)N[C@H](C(=O)N6C[C@H](O)C[C@H]6C(=O)N[C@@H](C)c6ccc(-c7scnc7C)cc6)C(C)(C)C)C5)nc4c3F)c12 [Compound 83]	–	–	11 to 30	–	101 to 200	–
